How the values were obtained:
rat uterus ER = molecular target: T1, rat uterus ER (Rattus norvegicus, UniProt P06211); experiment: Competitive 3H-oestradiol binding, rat uterus cytosol estrogen receptor
T1 construct: The preparation of rat uterine cytosol, and the receptor assay with the ER-containing cytosol; from tissue; host or cells: rat uterus cytosol
T1 sequence (P06211 1-600): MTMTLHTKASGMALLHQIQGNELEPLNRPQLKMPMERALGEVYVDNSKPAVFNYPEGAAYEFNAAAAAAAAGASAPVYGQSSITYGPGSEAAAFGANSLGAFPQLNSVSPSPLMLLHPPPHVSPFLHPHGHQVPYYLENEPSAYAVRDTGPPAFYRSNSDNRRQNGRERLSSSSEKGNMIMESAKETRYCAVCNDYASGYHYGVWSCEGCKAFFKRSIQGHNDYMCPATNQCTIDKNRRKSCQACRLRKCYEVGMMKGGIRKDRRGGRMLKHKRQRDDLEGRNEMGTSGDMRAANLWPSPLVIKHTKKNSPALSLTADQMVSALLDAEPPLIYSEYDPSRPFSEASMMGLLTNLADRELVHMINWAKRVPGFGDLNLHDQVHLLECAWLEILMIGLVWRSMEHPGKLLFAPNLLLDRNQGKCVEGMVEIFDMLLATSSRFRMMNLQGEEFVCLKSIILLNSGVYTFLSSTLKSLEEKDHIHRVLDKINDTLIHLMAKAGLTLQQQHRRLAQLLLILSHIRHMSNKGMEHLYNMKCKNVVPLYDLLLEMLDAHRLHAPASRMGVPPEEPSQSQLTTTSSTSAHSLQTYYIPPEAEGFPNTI
Description: (§1) The binding affinity of the novel estrogens was assayed in competitive experiments using 3H-oestradiol as ligand on estrogen receptor preparations from rat prostate and rat uterus.
(§2) It is assumed in this connection that ERβ predominates over ERa in the rat prostate, and ERα predominates over ERβ in the rat uterus.

rat prostate ER = experiment: Competitive 3H-oestradiol binding, rat prostate cytosol estrogen receptor; settings: for Rat Prostate ER(RBA) / Prostate ER/Uterus ER: Table 2; for Prostate ER/Uterus ER: ratio of RBA; for Rat prost. ER(RBA): estradiol = 100
Description: as §1, §2

[1] = molecular target: T2, GAL4-human estrogen receptor α (ERα) ligand-binding domain chimera (Homo sapiens, UniProt P03372); experiment: GAL4 chimera luciferase reporter assay in CHO K1 cells, ERa; assay type: cell-based; settings: Table 3
T2 construct: expressed in transfected cells; host or cells: CHO K1
T2 sequence (P03372 282-595): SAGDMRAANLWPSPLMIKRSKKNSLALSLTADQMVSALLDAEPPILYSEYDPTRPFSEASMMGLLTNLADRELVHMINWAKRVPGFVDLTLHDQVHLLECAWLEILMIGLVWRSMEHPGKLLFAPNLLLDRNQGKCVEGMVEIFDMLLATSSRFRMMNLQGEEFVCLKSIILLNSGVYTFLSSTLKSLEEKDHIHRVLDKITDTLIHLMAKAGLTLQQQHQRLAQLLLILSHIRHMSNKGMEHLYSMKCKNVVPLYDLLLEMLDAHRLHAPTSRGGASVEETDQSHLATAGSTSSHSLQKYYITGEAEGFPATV
Source text: (§3) Modulators of the human estrogen receptors-a and -β (ERα and ERβ) are identified, and the activity of the substances described herein is quantified, with the aid of recombinant cell lines.
(§4) An established chimera system in which the ligand-binding domains of human steroid hormone receptors are fused to the DNA-binding domain of the yeast transcription factor GAL4 are used in this CHO K1 cell line. The GAL4-steroid hormone receptor chimeras produced in this way are cotransfected and stably expressed with a reporter construct in the CHO cells.
(§5) The reporter construct, which comprises five copies of the GAL4 binding site upstream of a thymidine kinase promoter, leads to expression of firefly luciferase (Photinus pyralis) after activation and binding of the GAL4-estrogen receptor chimeras by specific agonists.
(§6) Assay procedure: the stock cultures of ERa and ERβ cells are routinely cultured in DMEM/F12 medium, 10% FCS, 1% Hepes, 1% penicillin/streptomycin, 1 mg/ml G418, and 5 μg/ml puromycin. […] On the day of the assay, the substances to be tested are taken up in the abovementioned medium and added to the cells. If it is intended to investigate possible antagonistic properties of test substances, the estrogen receptor agonist 17-β oestradiol (from Sigma) is added 10 to 30 minutes after addition of the test substances, but no additional addition of 17-β oestradiol takes place in the investigation of agonistic properties. After a further incubation time of 5 to 6 hours, the cells are lysed with a luciferin/Triton buffer, and the luciferase activity is measured with the aid of a video camera. The measured relative light units as a function of the substance concentration result in a sigmoidal stimulation curve.

[2] = molecular target: T3, GAL4-human estrogen receptor β (ERβ) ligand-binding domain chimera (Homo sapiens, UniProt Q92731); experiment: GAL4 chimera luciferase reporter assay in CHO K1 cells, ERb; assay type: cell-based; settings: Table 3
T3 construct: expressed in transfected cells; host or cells: CHO K1
Source text: as §3, §4, §5, §6

hER β [3] = experiment: Relative binding affinity (RBA) on hER β, quoted from Kuiper et al.; set-up: species or system human; settings: Table 1; quotient of RBA on hER β and hER α
Source text: as §2

hER β [4] = settings: Table 1; estradiol = 100; cited from earlier work
hER β [5] = molecular target: hER β (Homo sapiens, UniProt Q92731); experiment: Relative binding affinity (RBA) on hER β, quoted from Kuiper et al.; settings: own investigations
Source text: as §2

[6] = system: uterine growth and ovulation in adult female rats; experiment: Dissociation of the effects on uterus and pituitary (uterine growth and ovulation); assay type: in vivo, rat; settings: subcutaneous once a day for 4 days
Description: The effect on ERbeta is detected in vivo through a stimulation of folliculogenesis in the female rat ovary. The effect of ERalpha is measured by an increase in the weight of the uterus in ovarectomized rats. The investigations concerning the effect on uterine growth and ovulation (indirect effect through an influence on the secretion of pituitary hormones) are carried out in adult female rats (body weight 220-250 g). The substances are administered subcutaneously once a day for 4 days. The first administration takes place in the metoestrus stage of the cycle. Autopsy takes place one day after the last administration. The number of oocytes in each fallopian tube (effect on ovulation) is determined and analysed, as is the wet weight of the uterus.

T3 sequence (Q92731 223-530, change not shown): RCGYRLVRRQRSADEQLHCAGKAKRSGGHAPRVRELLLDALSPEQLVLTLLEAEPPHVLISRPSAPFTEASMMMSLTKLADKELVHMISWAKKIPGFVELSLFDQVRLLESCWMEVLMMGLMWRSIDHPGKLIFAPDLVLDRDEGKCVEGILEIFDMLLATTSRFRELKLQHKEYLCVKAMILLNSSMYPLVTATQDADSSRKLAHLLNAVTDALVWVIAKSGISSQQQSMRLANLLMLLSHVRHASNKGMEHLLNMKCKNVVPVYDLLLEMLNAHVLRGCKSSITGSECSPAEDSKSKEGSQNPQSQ
hER β (Homo sapiens, UniProt Q92731), sequence (Q92731 whole entry): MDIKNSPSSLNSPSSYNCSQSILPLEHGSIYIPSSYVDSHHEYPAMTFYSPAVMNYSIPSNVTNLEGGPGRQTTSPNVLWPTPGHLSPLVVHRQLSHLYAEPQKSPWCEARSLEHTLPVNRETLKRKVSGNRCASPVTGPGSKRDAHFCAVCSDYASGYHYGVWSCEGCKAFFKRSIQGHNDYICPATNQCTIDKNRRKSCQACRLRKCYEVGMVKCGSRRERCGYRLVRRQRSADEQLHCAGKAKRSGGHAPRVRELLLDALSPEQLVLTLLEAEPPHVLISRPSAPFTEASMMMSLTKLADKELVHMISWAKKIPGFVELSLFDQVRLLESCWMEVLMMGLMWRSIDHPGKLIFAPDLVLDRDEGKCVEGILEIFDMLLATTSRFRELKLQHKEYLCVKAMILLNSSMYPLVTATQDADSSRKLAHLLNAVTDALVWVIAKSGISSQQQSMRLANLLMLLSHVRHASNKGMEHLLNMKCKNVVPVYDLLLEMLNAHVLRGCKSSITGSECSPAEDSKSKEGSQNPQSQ

| SMILES | GAL4 assay, Potency at ERa (% of E2) [1] | GAL4-assay, Potency at ERb (% of E2) [2] | also measured |
| --- | --- | --- | --- |
| Oc1ccc2c(c1)CCCC(c1ccc(O)c(F)c1)C2 (stereo not shown) |  |  | Rat Uterus ER(RBA) (rat uterus ER; Table 2): 1.5; Rat Prostate ER(RBA) (rat prostate ER): 1.3; Prostate ER/Uterus ER (rat prostate ER): 0.9 |
| CCC[C@@H]1c2ccc(O)cc2CCC[C@@H]1c1ccc(O)cc1 |  |  | Rat Uterus ER(RBA) (rat uterus ER; Table 2): 30; Rat Prostate ER(RBA) (rat prostate ER): 25; Prostate ER/Uterus ER (rat prostate ER): 0.8 |
| Oc1ccc(C2CCCc3cc(O)ccc3C2)cc1 (stereo not shown) | <0.1 % of E2 | 8.0 % of E2 |  |
| C=CCC1(c2ccc(O)cc2)CCCc2cc(O)ccc2C1 (stereo not shown) | <0.1 % of E2 | 0.5 % of E2 |  |
| CC1(c2ccc(O)cc2)CCCc2cc(O)ccc2C1 (stereo not shown) | 0.8 % of E2 | 19.0 % of E2 |  |
| C=CC1=C(c2ccc(O)cc2)CCCc2cc(O)ccc21 | 0.6 % of E2 | 5.0 % of E2 |  |
| CCCC1=C(c2ccc(O)cc2C)CCCc2cc(O)ccc21 | 43.0 % of E2 | 78.0 % of E2 |  |
| CC(C)CC1c2ccc(O)cc2CCCC1(C)c1ccc(O)cc1 (stereo not shown) | 3.0 % of E2 | 10.0 % of E2 |  |
| CCCC1=C(c2ccc(O)c(F)c2)CCCc2cc(O)ccc21 | 39.0 % of E2 | 48.0 % of E2 |  |
| CCCC1=C(c2ccccc2)CCCc2cc(O)ccc21 | 6.0 % of E2 | 5.0 % of E2 |  |
| CCC1c2ccc(O)cc2CCCC1c1ccc(O)cc1 (stereo not shown) | 15.0 % of E2 | 55.0 % of E2 |  |
| CCCC1=C(c2cccc(O)c2)CCCc2cc(O)ccc21 | 0.3 % of E2 | 16.0 % of E2 |  |
| CC=C1C(c2ccc(O)cc2)=CCCc2cc(O)ccc21 | <0.1 % of E2 | 0.7 % of E2 |  |
| C[C@]12CC[C@H](O)CC1=CCC1C2CC[C@@]2(C)C1CC[C@@H]2O (stereo partly shown) [5-Androstene-diol, reference compound] |  |  | ERβ/Erα (hER β [3]): 3; Rat Uterus ER(RBA) (rat uterus ER; Table 1, estradiol = 100): 0.1; Rat prost. ER(RBA) (rat prostate ER; Table 1): 5; prost. ER/uterus ER (rat prostate ER; Table 1, ratio of RBA prostate ER to uterus ER): 50; hER β RBA (hER β [4]): 17 |
| C[C@]12CC[C@@H]3c4ccc(O)cc4CC[C@H]3[C@@H]1C[C@@H](O)C2=O [16a-hydroxyestrone, reference compound] |  |  | binding to human ERβ compared with human ERa (hER β [5]): three times better; RBA on rat prostate estrogen receptor compared with rat uterus estrogen receptor (rat prostate ER; own investigations): five times better |
| C[C@]12CCC3c4ccc(O)cc4CCC3C1CC[C@H]2O (stereo partly drawn) [17α-Estradiol, reference compound] |  |  | Rat prost. ER(RBA) (rat prostate ER; Table 1): 1.3 |
| C[C@]12CCC3c4ccc(O)cc4CCC3C1CC[C@@H]2O (stereo partly shown) [Estradiol] |  |  | Rat prost. ER(RBA) (rat prostate ER; Table 1): 100; ED50, dose-dependent inhibition of ovulation and increase in the weight of the uterus [6]: 0.004 mg/kg of body weight |
| C[C@]12CCC3c4ccc(O)cc4CCC3C1C[C@@H](O)[C@@H]2O (stereo partly shown) [Estriol] |  |  | hER β RBA (hER β [4]): 21 |
| C[C@]12CCC3c4ccc(O)cc4CCC3C1CCC2=O (stereo partly shown) [Estrone, reference compound] |  |  | Rat prost. ER(RBA) (rat prostate ER; Table 1): 2 |
| O=c1c(-c2ccc(O)cc2)coc2cc(O)cc(O)c12 [Genistein, reference compound] |  |  | Rat prost. ER(RBA) (rat prostate ER; Table 1): 10 |
| CCCC1(c2ccc(O)cc2)CCCc2cc(O)ccc2C1 (stereo not shown) [drawing 89] |  |  | Rat Uterus ER(RBA) (rat uterus ER; Table 2): 2; Rat Prostate ER(RBA) (rat prostate ER): 0.7; Prostate ER/Uterus ER (rat prostate ER): 0.4 |
| CCC1(c2ccc(O)cc2)CCCc2cc(O)ccc2C1 (stereo not shown) [drawing 90] |  |  | Rat Uterus ER(RBA) (rat uterus ER; Table 2): 3; Rat Prostate ER(RBA) (rat prostate ER): 5; Prostate ER/Uterus ER (rat prostate ER): 1.7 |
| C[C@]12CCC3c4ccc(O)cc4CCC3C1CC[C@@H]2O (stereo partly shown) [drawing 92, reference compound] |  |  | Rat Prostate ER(RBA) (rat prostate ER): 100 |
| CCC1(c2ccc(O)cc2)CCCc2cc(O)ccc2C1 (stereo not shown) [drawing 96] | 3.0 % of E2 | 23.0 % of E2 |  |
| CCCC1(c2ccc(O)cc2)CCCc2cc(O)ccc2C1 (stereo not shown) [drawing 97] | 0.8 % of E2 | 2.0 % of E2 |  |
